From patent US7265156B2 (Dospharma, priority 2000, dated 2007)
Counter-ions that a name gives are not always drawn. Like-named read-outs stand apart in the source and are kept apart here.

What was measured:
NIDDM patients = settings: humans, simultaneous administration, arginine 30 g intravenous over 30 min; cited from earlier work
[1] = tested on: rats made diabetic with fructose; assay: Anti-diabetic activity in rats made diabetic with fructose at 10% in the drinking water; assay type: in vivo, rat; settings: for 21 days fructose (glycemia mM) / Control (glycemia mM): rats; for 21 days fructose (glycemia mM): group baseline after 21 days fructose, before treatment; for Control (glycemia mM): group baseline before fructose and before treatment
Method: The second model is prepared by administering fructose at 10% in the drinking water of the rats for three weeks. An insulin resistance develops, followed by diabetes of […] type. […]

[2] = 50 mg/kg
[3] = tested on: streptozotocine model and fructose model; settings: rats, 50 mg/kg; cited from earlier work
[4] = tested on: rats made diabetic with streptozotocin; assay: Anti-diabetic activity in rats made diabetic with streptozotocin; assay type: in vivo, rat; settings: streptozotocin rats (50 mg/kg IP); for hyperglycemia after treatment: 30 mg/kg; for hyperglycemia before treatment: baseline of the 30 mg/kg group
Text: From the pharmacological point of view, the anti-diabetic activity was studied on two models of rats made diabetic.

[5] = tested on: hamsters made diabetic by fructose; assay: Anti-diabetic activity in hamsters made diabetic by fructose for three months; assay type: in vivo, hamster; settings: for 2 weeks treatment (glycemia mg/dl): hamsters, fructose 3 months, 10 mg/kg/day, fructose only 143, control without fructose 91 mg/dl
Method: The anti diabetic activity was also tested on hamsters made diabetic by the administration of fructose for three months. […]

[6] = tested on: microcirculation of the hamster cheek pouch; assay: Study on the cheek pouch of the hamster (microcirculation); assay type: in vivo; settings: vasodilatory action of arginine and action of metformin on vasomotion
[7] = In vitro assay of cleavage in an intestinal juice; assay type: in vitro ADME; settings: 37° C., arginine hemisuccinimide part not modified
Method: A preparation of intestinal juice containing trypsin, peptidases, lipase, amylase and all the other enzymes of the exocrine pancreas is used. This assay is validated beforehand using calibration compounds. A known amount (of the order of one microgram) of the compound A′V′C′ is mixed together with a known amount of intestinal juice (the trypsin and lipase contents of which are controlled). The reaction mixture is kept at 37° C. for one hour. This time is compatible with the intestinal transit. Samples are taken every 15 min, and the products A and C are detected and their concentration measured using HPLC coupled to a UV detector, or a mass spectrometer if it is not possible to use UV. The columns used depend on the nature of A and of C, but are generally ion-exchange columns, because of the presence of released alcohol, amine or acid forms. […] This assay can be coupled with determination of the release of A (biguanide), C (transporter) and V in the gastric juice, using exactly the same principle but replacing the intestinal juice with gastric juice.
A second assay is carried out on a rat hepatocyte culture, according to the method described above.

Compound: N=C(N)NCCC[C@H](N)C(=O)O [arginine]
- effect on the antihyperglycemic effects of metformin (NIDDM patients): not modified
- 4 days treatment (glycemia mM) ([1]; fructose rats, 30 mg/kg/day): 14.37 ± 0.20 mM
- 8 days treatment (glycemia mM) ([1]; fructose rats, 30 mg/kg/day): 12.56 ± 0.89 mM
- 12 days treatment (glycemia mM) ([1]; fructose rats, 30 mg/kg/day): 11.98 ± 0.71 mM
- 21 days treatment (glycemia mM) ([1]; fructose rats, 30 mg/kg/day): 10.73 ± 1.27 mM
- 21 days fructose (glycemia mM) [1]: 13.24 ± 0.62 mM
- Control (glycemia mM) [1]: 6.87 ± 0.14 mM

Compound: CN(C)C(=N)N=C(N)N [metformin hydrochloride]
- concentration peak ([2]; rat, in vivo, po): 3900 ng/mL
- time of concentration peak ([2]; rat, in vivo, po): ≤ 90 min
- activity on conventional models of non-insulin dependent diabetes [3]: active

Compound: CN(C)C(=N)NC(=N)N [metformin, N,N-dimethylimidodicarbonimidic diamide]
- effect on the hemodynamic and hemorheological action of arginine (NIDDM patients): potentiates
- 4 days treatment (glycemia mM) ([1]; fructose rats, 30 mg/kg/day): 13.41 ± 0.52 mM
- 8 days treatment (glycemia mM) ([1]; fructose rats, 30 mg/kg/day): 10.83 ± 0.64 mM
- 12 days treatment (glycemia mM) ([1]; fructose rats, 30 mg/kg/day): 9.78 ± 0.72 mM
- 21 days treatment (glycemia mM) ([1]; fructose rats, 30 mg/kg/day): 9.87 ± 0.68 mM
- 21 days fructose (glycemia mM) [1]: 12.52 ± 0.52 mM
- Control (glycemia mM) [1]: 6.94 ± 0.13 mM
- hyperglycemia after treatment [4]: 9.85 mM
- hyperglycemia before treatment [4]: 12.11 mM
- 2 weeks treatment (glycemia mg/dl) [5]: 112 mg/dL

Compound: arginine hemisuccinimide-metformin hemisuccinate
- 4 days treatment (glycemia mM) ([1]; fructose rats, 70 mg/kg/day): 10.92 ± 0.44 mM
- 8 days treatment (glycemia mM) ([1]; fructose rats, 70 mg/kg/day): 9.13 ± 0.64 mM
- 12 days treatment (glycemia mM) ([1]; fructose rats, 70 mg/kg/day): 8.43 ± 0.52 mM
- 21 days treatment (glycemia mM) ([1]; fructose rats, 70 mg/kg/day): 7.76 ± 0.78 mM
- anti-diabetic activity compared with metformin alone ([1]; fructose rats, equivalent dose of metformin base): significantly more active
- 21 days fructose (glycemia mM) [1]: 12.14 ± 0.28 mM
- Control (glycemia mM) [1]: 6.84 ± 0.06 mM
- hyperglycemia after treatment [4]: 7.56 mM
- hyperglycemia before treatment [4]: 12.66 mM
- effects on the microcirculation [6]: reproduces at least the effects of the two active principles
- anti-diabetic activity compared with metformin on its own ([5]; fructose hamsters, equal dose of 10 mg/kg/day, two weeks of treatment): significantly more active
- 2 weeks treatment (glycemia mg/dl) [5]: 93 mg/dL
- time of concentration peak ([2]; rats, oral, plasma metformin): 60 min
- release of the metformin [7]: Immediate release
